Source: patent US20050209441A1, “Process for promoting proper folding of human serum albumin using a human serum albumin ligand” (priority 2004, published 2005)
Where two headings read alike, the source gives them in different places.

Target: human serum albumin (HSA) (Homo sapiens, UniProt P02768)
Assay: HSA refolding with ligand assistance (ED50 for refolding)
Procedure: Sodium caprate is added to Solution B to a final concentration of 10 mM. Solution B is held at 37° C. for 1-5 minutes.
Step C. […] Sodium caprate is added to Solution C to a final concentration of 10 mM. Solution C is held at 37° C. for a period of 30 minutes.

human serum albumin (HSA), sequence (P02768 25-609): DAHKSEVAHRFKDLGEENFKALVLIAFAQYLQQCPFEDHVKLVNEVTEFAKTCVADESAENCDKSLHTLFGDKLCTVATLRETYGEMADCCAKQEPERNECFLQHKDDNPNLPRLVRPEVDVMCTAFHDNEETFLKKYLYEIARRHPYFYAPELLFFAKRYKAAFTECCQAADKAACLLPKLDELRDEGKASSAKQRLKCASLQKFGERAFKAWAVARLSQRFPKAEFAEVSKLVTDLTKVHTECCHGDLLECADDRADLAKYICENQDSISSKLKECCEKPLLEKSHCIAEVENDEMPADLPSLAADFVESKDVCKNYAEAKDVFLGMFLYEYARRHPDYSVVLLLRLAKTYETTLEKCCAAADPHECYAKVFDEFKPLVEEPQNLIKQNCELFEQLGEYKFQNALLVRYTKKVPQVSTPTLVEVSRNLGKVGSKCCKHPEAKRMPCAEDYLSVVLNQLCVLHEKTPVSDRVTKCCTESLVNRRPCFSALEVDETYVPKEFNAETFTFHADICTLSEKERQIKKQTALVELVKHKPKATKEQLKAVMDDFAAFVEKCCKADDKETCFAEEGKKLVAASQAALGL

SMILES	Optimal Concentration (refolding ligand) (Table 1) [mM]	EC50 [µM]	Optimal Concentration (refolding ligand)
CCCCO [1-Butanol (C4), 1-Butanol]	500	–	–
CCCCCCCCCCO [1-Decanol (C10), 1-Decanol]	3	300	–
CCCCCCCCCCCCO [1-Dodecanol (C12), 1-Dodecanol]	–	230	0.3 mM (saturated)
CCCCCCO [1-Hexanol (C6), 1-Hexanol]	25	–	–
CCCCCCCCO [1-Octanol (C8), 1-Octanol]	3	450	–
CCCCCO [1-Pentanol (C5), 1-Pentanol]	150	–	–
CCCCCC(=O)[O-].[Na+] [Na Caproate, sodium caproate]	>30	–	–
CCCCCCCCCCCC(=O)[O-].[Na+] [Na Laurate, sodium laurate]	1	45	–
CCCCOC(=O)c1ccc(N)cc1 [n-butyl p-aminobenzoate]	–	800	–
